Results on 1 substance are retold here after US20050272682A1, “SiRNA targeting PI3K signal transduction pathway and siRNA-based therapy” (priority 2004, published 2005).

Entries after “also recorded” stand apart in the source; their conditions may differ.

What all share (assay type): cell-based, human
One data set has as its system PI3K/Akt pathway. Description: Western blot and immunofluorescence of Akt1, p85α and pAkt in transfected KM20 cells. Here is the method:
(§1) Cell culture transfection was carried out with siPORT™ Amine transfection agent according to the manufacturer's protocol. Three days after transfection with the siRNA duplexes, cells were harvested and protein expression was assessed by Western blot.
(§2) Western immunoblot analyses were performed as described previously (Wang, et al., 2000). Cells were lysed with TNN buffer at 4° C. for 30 min. Lysates were clarified by centrifugation (10,000×g for 30 min at 4° C.) and protein concentrations determined using the method of Bradford (1976). Briefly, total protein (100 μg) was resolved on a 10% polyacrylamide gel and transferred to Immobilon-P […] membranes. Filters were incubated overnight at 4° C. in blotting solution (Tris-buffered saline containing 5% nonfat dried milk and 0.1% Tween 20), followed by a 1-h incubation with primary antibodies. Filters were washed three times in a blocking solution and incubated with horseradish peroxidase-conjugated secondary antibodies for 1 h. After three additional washes, the immune complexes were visualized by ECL detection.
KM20 cells were seeded onto sterile glass coverslips in 60 mm dishes and cultured for 16-24 h before treatment. Cells were transfected with pik3r1 or Akt1 or scrambled (control) siRNA sequences. At 96 h posttransfection, cells were washed in PBS, fixed in cold methanol for 5 min, and washed in three changes of PBS followed by a solution of 10% normal goat serum. After washing, cells were then incubated with the primary antibody (diluted in PBS with 1.5% normal goat serum) for 60 min. […] After three final washes, the slides were viewed with a fluorescence microscope.
It is speculated that siRNA directed to PI3K/Akt pathway components would inhibit cell growth and induce apoptosis in human colorectal cancer cell lines. […] In view of evidence that Akt plays a critical role in the prosurvival properties of PI3K (Nichol son, et al., 2002), activation of Akt in pik3r1 and Akt1 siRNA treated cells was then analyzed by Western blot and immunofluorescent analysis using a phospho-specific Ser473 Akt antibody.
In general terms: A western blot detects proteins with antibodies after separation by electrophoresis.

Data set [1] deals with KM12C cells. The data set is described as follows: Western blot of apoptosis-related proteins, KM12C cells. As to the method: as §1, §2
Data set [2] has as its system KM12C cells. The data set is described as follows: DNA fragmentation assay (Cell Death Detection ELISA), KM12C cells. Here is the method:
Cells were transfected with pik3r1, Akt1 or scrambled siRNA. After 48 h, adherent cells were detached by rapid trypsinization, counted in a Hausser chamber and seeded at a density of 2×10^3 cells per well in 96-well flat-bottom microtiter plates and incubated in 250 μl of growth medium for 24 h at 37° C. Media were removed and either new complete media or TRAIL (100 ng/mL) was added in a final volume of 200 μL and allowed to grow for 24 h at 37° C. After treatment, DNA fragmentation was evaluated by examination of cytoplasmic histone-associated DNA fragments (mono- and oligonucleosomes) using a Cell Death Detection ELISA^Plus kit (Roche Molecular Biochemicals) according to the manufacturer's instructions and as previously described (Wang. et al., 2002). The experiments were repeated on at least 3 separate occasions.
Background: ELISA stands for enzyme-linked immunosorbent assay.

“pik3r1 siRNA: siRNA to human pik3r1 (p85α) used in KM20/KM12C cells and xenografts; SEQ ID NO:24 vs. SEQ ID NO:25 (chain 1 GAAUAUACCCGCACAUCCCUU; chain 2 GGGAUGUGCGGGUAUAUUCUU; listed as RNA, chemistry not given here)”: the “pAkt expression (immunofluorescent analysis)” value in the data set on PI3K/Akt pathway (96 h posttransfection, compared with scrambled sequences) is given as “suppression”. The p85α protein levels result in the data set with PI3K/Akt pathway (Western blot, 72, 96 and 120 h after transfection in Example 19) is “reduced; also recorded: decreased”. Further, in the data set on PI3K/Akt pathway (Western blot, phospho-Ser473 Akt antibody), the pAkt expression levels entry is “suppressed; also recorded: decreased”. Moreover, in the data set on KM12C cells [1], the Bax protein expression result is given as “increased”, the Bcl-2 protein expression entry was “decreased”, the Bcl-xL protein expression result was “decreased” and the “caspase-9 activation (35 kDa large active subunit)” value was “activation”. For the same substance, the “cytochrome C release” value in the data set with KM12C cells [1] is recorded as “induced”. In the data set on KM12C cells [2] (siRNA alone compared to scrambled sequence), the “DNA fragmentation (apoptosis)” value is listed as “increase; also recorded: induced”. Further, in the data set on KM12C cells [2] (siRNA in combination with TRAIL 100 ng/mL), the “TRAIL-mediated apoptosis (DNA fragmentation)” value was “significant augmentation”.
